Key:
Format in all cases: cell-based
[1] = tested on: Primary human hepatic stellate cells; test: TNFα-induced IL-6 secretion in primary human hepatic stellate cells (ELISA); conditions: for IL-6 cytokine secretion, in words: primary human hepatic stellate cells from two donors, 3 ng/mL TNFα, 12 h
Procedure: (§1) Primary human hepatic stellate cells were obtained from Samsara Sciences based on the following criteria for selecting donors: adult age (between 18 and 50 years), normal BMI (>18.5 and <25), and absence of confounding liver disease. Primary human hepatic stellate cells grown in Complete HSC Medium to ˜80% confluence in T75 or T150 flasks below passage 10 were seeded into sterile, collagen I coated, 96-well optical plastic microplates (ThermoScientific, 152036) at 4000 cells per well (˜1250 cells per cm^2) and incubated for 6 hours at 37° C., 5% CO2 in a humidified incubator.
(§2) After 6 hours, plates were removed from the incubator and the medium gently pipetted off and washed once with 150 μL per well DPBS. The DPBS was removed and the pretreatment medium (±single amino acid dropout, 1×HMDB DMEM+3% dialyzed FBS+0.2% Primocin, ±supplemental amino acid dose; see experiment for medium composition) was applied to the cells at 150 μL per well. Plates were returned to the incubator overnight, ˜14-15 hours.
(§3) After overnight pretreatment, the medium was removed from the cells, and the same pretreatment medium, now supplemented with 3 ng/mL TNFα is applied. Each plate contained 3 ng/mL TNFα in 1× human plasma amino acid (HMDB or PAA) concentration medium, 0 ng/mL in 1×HMDB, and 3 ng/mL TNFα+50 nM Bengamide in 1×HMDB to serve as controls. Plates were incubated for 12 hours at 37° C., 5% CO2.
(§4) After 12 hour stimulus with TNFα, supernatant was removed and frozen at −80° C. in two separate aliquots. Plates were washed gently once with DPBS and 100 μL per well of 1×HMDB DMEM+3% dialyzed FBS+0.2% Primocin+10% CCK-8 viability reagent (Dojindo). Plates were incubated for 1 hour at 37° C., 5% CO2.
(§5) After 1 hour of incubation, viability was measured on the Synergy plate reader (Absorbance at 977 (test), 900 (reference), and 450 (CCK8) nm). Immediately, the medium was removed and the plates were fixed with 70 μL per well 4% paraformaldehyde in PBS at room temperature for 20 minutes, followed by two 150 μL PBS washes, and stored with 100 μL per well PBS at 4° C. until immunofluorescence staining.
(§6) Human CCL2/MCP1 and Human IL-6 were measured by ELISA (Human […] DuoSet ELISA, R&D Systems; Human IL-6 DuoSet ELISA, R&D Systems) at 1/5 and 1/20 dilution in 1× Reagent Diluent (Reagent Ancillary Kit 2, R&D Systems). Data were normalized to the specific per well cell density determined by Hoechst stained nuclei count.

[2] = tested on: Primary human hepatic stellate cells; test: TGFβ1-induced procollagen Iα1 secretion in primary human hepatic stellate cells (ELISA); conditions: for procollagen Iα1 secretion, in words: primary human hepatic stellate cells from three donors, 3 ng/mL TGFβ1, 24 h
Procedure: as §1, with “disease. Cells” for “disease. Primary human hepatic stellate cells”, “at 6000” for “at 4000”, “[…])” for “per cm^2)”, “incubated overnight” for “incubated for 6 hours”, “humidified incubator in DMEM with 2% Fetal Bovine Serum and 1% Antibiotic-Antimycotic.” for “humidified incubator.”
After the overnight incubation, plates were removed from the incubator and the medium was gently pipetted off and washed twice with 150 μL per well DPBS. The DPBS was removed and the pretreatment medium (±single amino acid dropout, 1×HMDB DMEM+1% Antibiotic-Antimycotic, 10 mM HEPES, ±supplemental amino acid dose; see experiment for medium composition) was applied to the cells at 150 μL per well. Plates were returned to the incubator for 10.5 hours.
After 10.5 hour pretreatment, the medium was removed from the cells, and the same pretreatment medium, now supplemented with 3 ng/mL TGFβ1, was applied. Each plate contained 3 ng/mL TGFβ1 in 1× human plasma amino acid (HMDB or PAA) concentration medium, 0 ng/mL in 1×HMDB, and 3 ng/mL TGFβ1+20 μM Silybin in 1×HMDB to serve as controls. Plates were then incubated for 24 hours at 37° C., 5% CO2.
After 24 hour stimulus, supernatant was removed and frozen at −80° C. in two separate aliquots. The cells were then washed with 125 μL per well Buffer FCW (FastLane Cell Multiplex NR Kit, Qiagen, 216713). The wash buffer was immediately removed and 50 μL of Cell Processing Mix (containing genomic DNA Wipeout buffer) was applied to lyse cells, incubating for 10 minutes at room temperature. RNA lysate was then transferred to 96-well qPCR plates, sealed, and gDNA was digested on thermal cycler at 75° C. for 5 minutes. RNA lysate was frozen at −80° C.
Human Procollagen Iα1 was measured from the supernatant by ELISA (Human Pro-Collagen I alpha 1 DuoSet ELISA, R&D Systems) at 1/100 dilution in 1× Reagent Diluent (Reagent Ancillary Kit 2, R&D Systems).

[3] = tested on: Primary human hepatic stellate cells; test: TNFα-induced MCP-1 secretion in primary human hepatic stellate cells (ELISA); conditions: for MCP-1 chemokine secretion, in words: primary human hepatic stellate cells from two donors, 3 ng/mL TNFα, 12 h
Procedure: as §1, §2, §3, §4, §5, §6

## CC(=O)N[C@@H](CS)C(=O)O [N-acetylcysteine]
[1]; donor 1, Conc. 1000 μM
  Fold Change IL-6 Secretion Normalized Per Cell, Mean: 0.7141
[1]; donor 1, Conc. 2500 μM
  Fold Change IL-6 Secretion Normalized Per Cell, Mean: 0.7354
[1]; donor 1, Conc. 5000 μM
  Fold Change IL-6 Secretion Normalized Per Cell, Mean: 0.6121
[1]; donor 1, Conc. 10000 μM
  Fold Change IL-6 Secretion Normalized Per Cell, Mean: 0.5716
[1]; donor 1, Conc. 5 X
  Fold Change IL-6 Secretion Normalized Per Cell, Mean: 0.7141
[1]; donor 1, Conc. 10 X
  Fold Change IL-6 Secretion Normalized Per Cell, Mean: 0.7354
[1]; donor 1, Conc. 20 X
  Fold Change IL-6 Secretion Normalized Per Cell, Mean: 0.6121
[1]; donor 1, Conc. 40 X
  Fold Change IL-6 Secretion Normalized Per Cell, Mean: 0.5716
[1]; donor 2, Conc. 1000 μM
  Fold Change IL-6 Secretion Normalized Per Cell, Mean: 0.9161
[1]; donor 2, Conc. 2500 μM
  Fold Change IL-6 Secretion Normalized Per Cell, Mean: 0.9180
[1]; donor 2, Conc. 5000 μM
  Fold Change IL-6 Secretion Normalized Per Cell, Mean: 0.8111
[1]; donor 2, Conc. 10000 μM
  Fold Change IL-6 Secretion Normalized Per Cell, Mean: 0.7064
[1]; donor 2, Conc. 5 X
  Fold Change IL-6 Secretion Normalized Per Cell, Mean: 0.9161
[1]; donor 2, Conc. 10 X
  Fold Change IL-6 Secretion Normalized Per Cell, Mean: 0.9180
[1]; donor 2, Conc. 20 X
  Fold Change IL-6 Secretion Normalized Per Cell, Mean: 0.8111
[1]; donor 2, Conc. 40 X
  Fold Change IL-6 Secretion Normalized Per Cell, Mean: 0.7064
[1]
  IL-6 cytokine secretion, in words: reduced IL-6 secretion in both donors but was only statistically significant in one of two donors
[2]
  procollagen Iα1 secretion, in words: significantly decrease procollagen Iα1 secretion in two of the three donors
[3]; donor 4, 1000 μM
  Fold Change MCP1 Secretion Normalized Per Cell, Mean: 0.6437
[3]; donor 4, 2500 μM
  Fold Change MCP1 Secretion Normalized Per Cell, Mean: 0.8033
[3]; donor 4, 5000 μM
  Fold Change MCP1 Secretion Normalized Per Cell, Mean: 0.6728
[3]; donor 4, 10000 μM
  Fold Change MCP1 Secretion Normalized Per Cell, Mean: 0.5011
[3]; donor 4, Conc. 5 X
  Fold Change MCP1 Secretion Normalized Per Cell, Mean: 0.6437
[3]; donor 4, Conc. 10 X
  Fold Change MCP1 Secretion Normalized Per Cell, Mean: 0.8033
[3]; donor 4, Conc. 20 X
  Fold Change MCP1 Secretion Normalized Per Cell, Mean: 0.6728
[3]; donor 4, Conc. 40 X
  Fold Change MCP1 Secretion Normalized Per Cell, Mean: 0.5011
[3]
  MCP-1 chemokine secretion, in words: significantly reduced MCP-1 secretion in both donors

## CC(C)[C@H](N)C(=O)O [Valine, L-Valine]
[1]; donor 1, Conc. 4684 μM
  Fold Change IL-6 Secretion Normalized Per Cell, Mean: 0.9790
[1]; donor 1, Conc. 11710 μM
  Fold Change IL-6 Secretion Normalized Per Cell, Mean: 0.9562
[1]; donor 1, Conc. 23420 μM
  Fold Change IL-6 Secretion Normalized Per Cell, Mean: 1.0404
[1]; donor 2, Conc. 4684 μM
  Fold Change IL-6 Secretion Normalized Per Cell, Mean: 1.0383
[1]; donor 2, Conc. 11710 μM
  Fold Change IL-6 Secretion Normalized Per Cell, Mean: 0.9218
[1]; donor 2, Conc. 23420 μM
  Fold Change IL-6 Secretion Normalized Per Cell, Mean: 0.9015
[1]
  IL-6 cytokine secretion, in words: no significant effect
[2]; first donor, Conc. 234 μM (baseline)
  Procollagen Iα1 Secretion (Fold Change of 1X), Mean: 1.0000 fold
[2]
  procollagen Iα1 secretion, in words: significantly increased procollagen Iα1 secretion in only one of two donors
[2]; second donor, Conc. 234 μM (baseline)
  Procollagen Iα1 Secretion (Fold Change of 1X), Mean: 1.0000 fold
[2]; third donor, Conc. 234 μM (baseline)
  Procollagen Iα1 Secretion (Fold Change of 1X), Mean: 1.0000 fold
[3]; donor 3, 4684 μM
  Fold Change MCP1 Secretion Normalized Per Cell, Mean: 1.0630
[3]; donor 3, 11710 μM
  Fold Change MCP1 Secretion Normalized Per Cell, Mean: 1.0204
[3]; donor 3, 23420 μM
  Fold Change MCP1 Secretion Normalized Per Cell, Mean: 1.2651
[3]; donor 4, 4684 μM
  Fold Change MCP1 Secretion Normalized Per Cell, Mean: 1.0942
[3]; donor 4, 11710 μM
  Fold Change MCP1 Secretion Normalized Per Cell, Mean: 1.1544
[3]; donor 4, 23420 μM
  Fold Change MCP1 Secretion Normalized Per Cell, Mean: 1.1525
[3]
  MCP-1 chemokine secretion, in words: no significant impact

## NC(=O)CC[C@H](N)C(=O)O [Glutamine, L-Glutamine]
[1]; donor 1, Conc. 749 μM
  Fold Change IL-6 Secretion Normalized Per Cell, Mean: 0.6320
[1]; donor 1, Conc. 3747 μM
  Fold Change IL-6 Secretion Normalized Per Cell, Mean: 0.5460
[1]; donor 1, Conc. 11242 μM
  Fold Change IL-6 Secretion Normalized Per Cell, Mean: 0.5136
[1]; donor 1, Conc. 22484 μM
  Fold Change IL-6 Secretion Normalized Per Cell, Mean: 0.5138
[1]; donor 2, Conc. 749 μM
  Fold Change IL-6 Secretion Normalized Per Cell, Mean: 0.7673
[1]; donor 2, Conc. 11242 μM
  Fold Change IL-6 Secretion Normalized Per Cell, Mean: 0.6478
[1]; donor 2, Conc. 22484 μM
  Fold Change IL-6 Secretion Normalized Per Cell, Mean: 0.5993
[1]
  IL-6 cytokine secretion, in words: significantly reduced IL-6 secretion in both donors
[2]; first donor, Conc. 562 μM (baseline)
  Procollagen Iα1 Secretion (Fold Change of 1X), Mean: 1.0000 fold
[2]
  procollagen Iα1 secretion, in words: did not have a significant impact
[2]; second donor, Conc. 562 μM (baseline)
  Procollagen Iα1 Secretion (Fold Change of 1X), Mean: 1.0000 fold
[2]; third donor, Conc. 562 μM (baseline)
  Procollagen Iα1 Secretion (Fold Change of 1X), Mean: 1.0000 fold
[3]; donor 3, 749 μM
  Fold Change MCP1 Secretion Normalized Per Cell, Mean: 0.7048
[3]; donor 3, 3747 μM
  Fold Change MCP1 Secretion Normalized Per Cell, Mean: 0.6036
[3]; donor 3, 11242 μM
  Fold Change MCP1 Secretion Normalized Per Cell, Mean: 0.6106
[3]; donor 3, 22484 μM
  Fold Change MCP1 Secretion Normalized Per Cell, Mean: 0.6212
[3]; donor 4, 749 μM
  Fold Change MCP1 Secretion Normalized Per Cell, Mean: 0.7782
[3]; donor 4, 3747 μM
  Fold Change MCP1 Secretion Normalized Per Cell, Mean: 0.6639
[3]; donor 4, 11242 μM
  Fold Change MCP1 Secretion Normalized Per Cell, Mean: 0.7129
[3]; donor 4, 22484 μM
  Fold Change MCP1 Secretion Normalized Per Cell, Mean: 0.7039
[3]
  MCP-1 chemokine secretion, in words: reduced MCP1 secretion in both donors but was only statistically significant in one of two donors
